Source: patent US5296367A (priority 1991, dated 1994)
*1 amine or outer side, *2 acyl side, *3 side chain or, on linkers, in order; H or OH if unused. Where a SMILES comes first, the peptide text is derived from it. CO = O=C([*:1])[*:2]

Target: T1, alkaline proteinase K-16 from Bacillus sp. KSM-K16 (Shouchella clausii, UniProt Q99405)
T1 construct: made in house; host or cells: Bacillus sp; KSM-K16 (own producer strain, culture)
T1 sequence (Q99405 112-380): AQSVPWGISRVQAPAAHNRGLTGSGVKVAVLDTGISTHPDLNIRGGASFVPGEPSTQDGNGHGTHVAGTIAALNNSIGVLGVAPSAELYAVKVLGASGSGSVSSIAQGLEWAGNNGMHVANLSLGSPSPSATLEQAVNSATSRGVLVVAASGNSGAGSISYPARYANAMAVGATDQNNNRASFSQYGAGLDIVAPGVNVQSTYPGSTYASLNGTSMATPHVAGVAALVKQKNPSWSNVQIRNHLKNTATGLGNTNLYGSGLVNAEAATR
Format: biochemical
Conditions: for Residual activity (%): pH 7

## CC(C)[C@H](NC(=O)[C@H](CCCNC(=N)N)NC(=O)N[C@@H](Cc1ccccc1)C(=O)O)C(=O)N[C@H](C=O)CCCNC(=N)N [Antipain] ({Phe-CO}-Arg-Val-Arg-aldehyde)
  Effect of inhibitor on activity (in words): not inhibited

## O=C(O)CN(CCN(CC(=O)O)CC(=O)O)CC(=O)O [EDTA, Ethylenediaminetetraacetic acid]
  Effect of inhibitor on activity (in words): not inhibited

## O=S(=O)(F)Cc1ccccc1 [PMSF, Phenylmethanesulfonyl fluoride]
  Effect of inhibitor on activity (in words): inhibited
  Residual activity (%): 1.5%

## chymostatin
  Effect of inhibitor on activity (in words): inhibited
  Residual activity (%): 34%
